Data from ChEMBL document CHEMBL3045187, “Chemical weed control in seedbed sown onion (Allium cepa L.)” (Crop Prot, 2006).

Assays:
Malva sylvestris [1] = assay: Herbicidal activity against Malva sylvestris assessed as total dry weight at 2.5 kg/ha applied as spray before seed sowing (reference value: 4.1 MT/ha); assay type: functional
Cyperus rotundus [2] = assay: Herbicidal activity against Cyperus rotundus assessed as total fresh weight at 2.5 kg/ha applied as spray before seed sowing (reference value: 23.6 MT/ha); assay type: functional
Cyperus rotundus [3] = assay: Herbicidal activity against Cyperus rotundus assessed as total dry weight at 2.5 kg/ha applied as spray before seed sowing (reference value: 4.1 MT/ha); assay type: functional
Malva sylvestris [4] = assay: Herbicidal activity against Malva sylvestris assessed as total fresh weight at 2.5 kg/ha applied as spray before seed sowing (reference value: 23.6 MT/ha); assay type: functional
Chenopodiastrum murale [5] = assay: Herbicidal activity against Chenopodium murale assessed as total fresh weight at 2.5 kg/ha applied as spray before seed sowing (reference value: 23.6 MT/ha); assay type: functional
Allium cepa [6] = assay: Phytotoxicity in Allium cepa (onion) seedling assessed as total fresh weight at 2.5 kg/ha applied as spray before seed sowing (reference value: 7.71 MT/ha); assay type: organism-based; details: in vivo, other
Chenopodiastrum murale [7] = assay: Herbicidal activity against Chenopodium murale assessed as total dry weight at 2.5 kg/ha applied as spray before seed sowing (reference value: 4.1 MT/ha); assay type: functional
Cyperus rotundus [8] = assay: Herbicidal activity against Cyperus rotundus assessed as total dry weight at 1.5 kg/ha applied as spray before seed sowing (reference value: 4.1 MT/ha); assay type: functional; details: pooled result: one value given for 3 cell lines, strains, targets or settings
Cyperus rotundus [9] = assay: Herbicidal activity against Cyperus rotundus assessed as total fresh weight at 1.5 kg/ha applied as spray before seed sowing (reference value: 23.6 MT/ha); assay type: functional; details: pooled result: one value given for 3 cell lines, strains, targets or settings
Allium cepa [10] = assay: Phytotoxicity in Allium cepa (onion) seedling assessed as total fresh weight at 1.5 kg/ha applied as spray before seed sowing (reference value: 7.71 MT/ha); assay type: organism-based; details: in vivo, other
Malva sylvestris [11] = assay: Herbicidal activity against Malva sylvestris assessed as total fresh weight at 3.2 kg/ha applied as spray before seed sowing (reference value: 23.6 MT/ha); assay type: functional
Cyperus rotundus [12] = assay: Herbicidal activity against Cyperus rotundus assessed as total dry weight at 3.2 kg/ha applied as spray before seed sowing (reference value: 4.1 MT/ha); assay type: functional
Chenopodiastrum murale [13] = assay: Herbicidal activity against Chenopodium murale assessed as total dry weight at 3.2 kg/ha applied as spray before seed sowing (reference value: 4.1 MT/ha); assay type: functional
Cyperus rotundus [14] = assay: Herbicidal activity against Cyperus rotundus assessed as total fresh weight at 3.2 kg/ha applied as spray before seed sowing (reference value: 23.6 MT/ha); assay type: functional
Chenopodiastrum murale [15] = assay: Herbicidal activity against Chenopodium murale assessed as total fresh weight at 3.2 kg/ha applied as spray before seed sowing (reference value: 23.6 MT/ha); assay type: functional
Malva sylvestris [16] = assay: Herbicidal activity against Malva sylvestris assessed as total dry weight at 3.2 kg/ha applied as spray before seed sowing (reference value: 4.1 MT/ha); assay type: functional
Allium cepa [17] = assay: Phytotoxicity in Allium cepa (onion) seedling assessed as total fresh weight at 3.2 kg/ha applied as spray before seed sowing (reference value: 7.71 MT/ha); assay type: organism-based; details: in vivo, other
Malva sylvestris [18] = assay: Herbicidal activity against Malva sylvestris assessed as total dry weight at 0.1 kg/ha applied as spray during post-emergence (reference value: 4.1 MT/ha); assay type: functional
Malva sylvestris [19] = assay: Herbicidal activity against Malva sylvestris assessed as total fresh weight at 0.1 kg/ha applied as spray during post-emergence (reference value: 23.6 MT/ha); assay type: functional
Chenopodiastrum murale [20] = assay: Herbicidal activity against Chenopodium murale assessed as total dry weight at 0.1 kg/ha applied as spray during postemergence (reference value: 4.1 MT/ha); assay type: functional
Chenopodiastrum murale [21] = assay: Herbicidal activity against Chenopodium murale assessed as total fresh weight at 0.1 kg/ha applied as spray during postemergence (reference value: 23.6 MT/ha); assay type: functional
Allium cepa [22] = assay: Phytotoxicity in Allium cepa (onion) seedling assessed as total fresh weight at 0.1 kg/ha applied as spray during postemergence (reference value: 7.71 MT/ha); assay type: organism-based; details: in vivo, other
Cyperus rotundus [23] = assay: Herbicidal activity against Cyperus rotundus assessed as total fresh weight at 0.1 kg/ha applied as spray during post-emergence (reference value: 23.6 MT/ha); assay type: functional
Cyperus rotundus [24] = assay: Herbicidal activity against Cyperus rotundus assessed as total dry weight at 0.1 kg/ha applied as spray during post-emergence (reference value: 4.1 MT/ha); assay type: functional
Chenopodiastrum murale [25] = assay: Herbicidal activity against Chenopodium murale assessed as total fresh weight at 0.86 kg/ha applied as spray before seed sowing (reference value: 23.6 MT/ha); assay type: functional
Malva sylvestris [26] = assay: Herbicidal activity against Malva sylvestris assessed as total dry weight at 0.86 kg/ha applied as spray before seed sowing (reference value: 4.1 MT/ha); assay type: functional
Malva sylvestris [27] = assay: Herbicidal activity against Malva sylvestris assessed as total fresh weight at 0.86 kg/ha applied as spray before seed sowing (reference value: 23.6 MT/ha); assay type: functional
Cyperus rotundus [28] = assay: Herbicidal activity against Cyperus rotundus assessed as total dry weight at 0.86 kg/ha applied as spray before seed sowing (reference value: 4.1 MT/ha); assay type: functional
Allium cepa [29] = assay: Phytotoxicity in Allium cepa (onion) seedling assessed as total fresh weight at 0.86 kg/ha applied as spray before seed sowing (reference value: 7.71 MT/ha); assay type: organism-based; details: in vivo, other
Chenopodiastrum murale [30] = assay: Herbicidal activity against Chenopodium murale assessed as total dry weight at 0.86 kg/ha applied as spray before seed sowing (reference value: 4.1 MT/ha); assay type: functional
Cyperus rotundus [31] = assay: Herbicidal activity against Cyperus rotundus assessed as total fresh weight at 0.86 kg/ha applied as spray before seed sowing (reference value: 23.6 MT/ha); assay type: functional

Question: For `CSc1nc(NC(C)C)nc(NC(C)C)n1` [PROMETRYN], which Activity (Malva sylvestris [1]) is on record?
Answer: 3.81 MT/ha

Question: And the Activity (Cyperus rotundus [2])?
Answer: 19.8 MT/ha

Question: What about the Activity (Cyperus rotundus [3]) of the same compound?
Answer: 3.81 MT/ha

Question: What about the Activity (Malva sylvestris [4]) of the same compound?
Answer: 19.8 MT/ha

Question: And the Activity (Chenopodiastrum murale [5])?
Answer: 19.8 MT/ha

Question: What about the Activity (Allium cepa [6]) of the same compound?
Answer: 3.67 MT/ha

Question: What about the Activity (Chenopodiastrum murale [7]) of the same compound?
Answer: 3.81 MT/ha

Question: Which Activity (Cyperus rotundus [8]) does the source give for `C#CC(C)(C)NC(=O)c1cc(Cl)cc(Cl)c1` [PRONAMIDE] here?
Answer: 3.61 MT/ha

Question: And the Activity (Cyperus rotundus [9])?
Answer: 20.5 MT/ha

Question: What about the Activity (Allium cepa [10]) of the same compound?
Answer: 6.67 MT/ha

Question: With `Nc1cnn(-c2ccccc2)c(=O)c1Cl` [PYRAZON] as the compound, how does the Activity (Malva sylvestris [11]) read?
Answer: 9.5 MT/ha

Question: What about the Activity (Cyperus rotundus [12]) of the same compound?
Answer: 1.94 MT/ha

Question: And the Activity (Chenopodiastrum murale [13])?
Answer: 1.94 MT/ha

Question: What about the Activity (Cyperus rotundus [14]) of the same compound?
Answer: 9.5 MT/ha

Question: And the Activity (Chenopodiastrum murale [15])?
Answer: 9.5 MT/ha

Question: And the Activity (Malva sylvestris [16])?
Answer: 1.94 MT/ha

Question: What about the Activity (Allium cepa [17]) of the same compound?
Answer: 6.68 MT/ha

Question: Which results are given for `CCOC(=O)C(C)Oc1ccc(Oc2cnc3cc(Cl)ccc3n2)cc1` (stereo unspecified) [QUIZALOFOP ETHYL ESTER]?
Answer: Activity (Malva sylvestris [18]): 2.52 MT/ha; Activity (Malva sylvestris [19]): 10.7 MT/ha; Activity (Chenopodiastrum murale [20]): 2.52 MT/ha; Activity (Chenopodiastrum murale [21]): 10.7 MT/ha; Activity (Allium cepa [22]): 10.11 MT/ha; Activity (Cyperus rotundus [23]): 10.7 MT/ha; Activity (Cyperus rotundus [24]): 2.52 MT/ha

Question: `CCCN(CCC)c1c([N+](=O)[O-])cc(C(F)(F)F)cc1[N+](=O)[O-]` [TRIFLURALIN] was tested. Which Activity (Chenopodiastrum murale [25]) did it give?
Answer: 14.8 MT/ha

Question: And the Activity (Malva sylvestris [26])?
Answer: 2.69 MT/ha

Question: And the Activity (Malva sylvestris [27])?
Answer: 14.8 MT/ha

Question: What about the Activity (Cyperus rotundus [28]) of the same compound?
Answer: 2.69 MT/ha

Question: What about the Activity (Allium cepa [29]) of the same compound?
Answer: 7.04 MT/ha

Question: And the Activity (Chenopodiastrum murale [30])?
Answer: 2.69 MT/ha

Question: And the Activity (Cyperus rotundus [31])?
Answer: 14.8 MT/ha
